Broadly, the CC50 is the concentration that lowers cell viability or growth by half.

Data on two compounds can be found in US20110034472A1, “Novel Compounds for Treatment of Cancer and Disorders Associated With Angiogenesis Function” (UNIVERSITY OF SOUTHERN CALIFORNIA, priority 2004, published 2011).

The subject of test [1] is DU145 cells. The experiment in a line: Annexin V/propidium iodide apoptosis assay, DU145. Type of test: cell-based, human. Particulars: 72 hours exposure, IC80. As for the experimental part: FIG. 19 illustrates apoptosis analysis of DU145 cells treated with SC21 or CPT (IC80). Cells were treated with SC21 or CPT for 24, 48, and 72 h, harvested, stained with annexin V/propidium iodide and analyzed by flow cytometry. Untreated control cells (24 and 48 h) were also included in the analysis. Annexin VFITC signals are recorded in FL1-H or […] and propidium iodide in FL2-H or […]. Cells in the bottom left quadrant (annexin V-negative, propidium iodide-negative) are viable, whereas cells in the right quadrant (annexin V-positive, propidium iodide-negative) are in the early stages of apoptosis, and the cells in the top right quadrant (annexin V-positive, propidium iodide-positive) are in later stages of apoptosis and necrosis.
To quantify drug-induced apoptosis, annexin V/propidium iodide staining was done followed by flow cytometry. […] The resulting fluorescence (FLH-1 channel for green fluorescence and FLH-2 channel for red fluorescence) was measured by flow cytometry using a FACScan flow cytometer (Becton Dickinson).
SC21 and CPT-induced apoptosis was measured by flow cytometry (FIG. 18). SC21 at an IC80 dose for 72 hours induced 12% to 15% apoptosis as measured by calculating sub-G0/G1 population. […] This event precedes nuclear breakdown, DNA fragmentation, the appearance of most apoptosis-associated molecules, and is readily measured by annexin V binding assay. […]

A further test concerns PC3 cells. Nature of the test: Cell cycle analysis (propidium iodide), SC21, PC3. The class given is cell-based, human. Particulars: 72 hours. As to the method:
(§1) FIG. 17 depicts flow cytometric analysis of the cell cycle profiles of DU145, PC3, MDA-MB-435, and HEY cells treated with SC21. […] SC21 induced a G0/G1 phase arrest in DU145 and MDA-MB-435 cells and S phase arrest in PC3 and HEY cells.
(§2) Cell cycle perturbations induced by SC21 and camptothecin (CPT) were analyzed by propidium iodide DNA staining. Briefly, exponentially growing PC3 and DU145 cells were treated with different doses of the drug for 24, 48, and 72 hours. At the end of each treatment time, cells were collected and washed with PBS after a gentle centrifugation at 200×g for 5 minutes. Cells were thoroughly resuspended in 0.5 mL of PBS and fixed in 70% ethanol for at least 2 hours at 4° C. Ethanol-suspended cells were then centrifuged at 200×g for 5 minutes and washed twice in PBS to remove residual ethanol. For cell cycle analysis, the pellets were suspended in 1 mL of PBS containing 0.02 mg/mL of propidiumiodide, 0.5 mg/mL of DNase-free RNase A and 0.1% of Triton X-100 and incubated at 37° C. for 30 minutes. Cell cycle profiles were obtained using a FACScan flowcytometer (Becton Dickinson, San Jose, Calif.) and data were analyzed by ModFit LT software (Verity Software House, Inc., Topsham, Me.).
It was noteworthy that SC21 induced S phase arrest in PC3 and HEY cell lines (FIG. 17).

Test [2] relates to DU145 cells. The experiment in a line: Cell cycle analysis (propidium iodide), SC21, DU145. The class given is cell-based, human. Particulars: 72 hours of exposure, IC50. As for the experimental part:
as §1
as §2, with “Me.). […]” for “Me.).”

A further test relates to MDA-MB-435 xenograft. Nature of the test: microPET study of nude mouse with MDA-MB-435 xenograft treated with SC144. Type of test: in vivo. Particulars: 4 mg/kg daily i.p. 5 days; caliper measurements for 5 weeks. As for the experimental part: Top row, baseline scans: (A) equilibrium-phase FDG, 30 min post injection; (B) FMAU, 10 min post injection; (C) FMAU, 60 min post injection. Bottom row, follow-up scans: (D) FDG, 30 min post injection; (E) FMAU, 10 min post injection; (F) FMAU, 60 min post injection. […] After five days of dosing, the drug treatment was discontinued and the follow-up scans were obtained on days 6 and 7.
[^18F]FDG is currently the most widely used radiotracer for imaging therapy response in oncology with PET. PET/[^18F]FDG measures viable cell density in tumors and also provides information on the expression of glucose transporters and hexokinase activity. […] Following cellular uptake, FMAU is phosphorylated by thymidine kinase and incorporated into DNA.
In later images at 30 and 60 min (FIG. 8C), FMAU had filled up the whole tumor, indicating the presence of dividing cells throughout.
FIGS. 8D-F show a repeat study of the same mouse after 5 days of treatment.

Test [3] relates to HOP-92 non-small cell lung cancer cells. Nature of the test: Sensitivity of various cancer cells to SC144, HOP-92. Type of test: cell-based. Particulars: Homo sapiens. From the text: (§3) The studies were expanded to other cell lines. […] Subnanomolar to low nanomolar potency was also observed in HCT-116 and HT29 colon cancer cell lines (Table 2).
Test [4] concerns HCT-116 colon cancer cells. The experiment in a line: Sensitivity of various cancer cells to SC144, HCT-116. The class given is cell-based. Particulars: Homo sapiens.
Text: as §3

In another test the test system is UACC-62 melanoma cells. The experiment in a line: Sensitivity of various cancer cells to SC144, UACC-62. Type of test: cell-based. Particulars: Homo sapiens.
Text: as §3

The test system of a further test is SF-295 CNS cancer cells. The experiment in a line: Sensitivity of various cancer cells to SC144, SF-295. Type of test: cell-based. To be noted: Homo sapiens.
Text: as §3

The test system of another test is HT29 colon cancer cells. The experiment in a line: Sensitivity of various cancer cells to SC144, HT29. Type of test: cell-based. To be noted: Homo sapiens, HT-29.
Text: as §3

Take `O=C(NNC(=O)c1ccccc1O)C1=CC2C=CC=CC2C=C1O` (stereo not drawn) [SC21]: in the test on DU145 cells [1], the “early plus late apoptotic cells” value stood at 72%. The “accumulation in S phase” value with PC3 cells is reported as 52%. The “cells retained in G0/G1 phase” value in the test with DU145 cells [2] came to 65%.

With `O=C(NNc1nc2cc(F)ccc2n2cccc12)c1cnccn1` [SC144, Pyrazine-2-carboxylic acid N′-(7-fluoro-pyrrolo[1,2-a]quinoxalin-4-yl)-hydrazide], the “long-term reduction of tumor volume compared with sham-treated control mice” value in the test on MDA-MB-435 xenograft is listed as greater than 50%. Also, the cytotoxic concentration (CC50) was found to be 200 nM in test [3]; 17 nM in test [4]; 800 nM with UACC-62 melanoma cells; 420 nM with SF-295 CNS cancer cells; 78 nM in the test on HT29 colon cancer cells.
